≈ marks a conversion by molar mass, not a printed value. Read-outs that look alike come from different tables or passages of the source.
Key:
[1] = biological target: M. tuberculosis LeuRS (Mycobacterium tuberculosis, UniProt P9WFV1); test: biochemical; set-up: species or system M. tuberculosis H37Rv
[2] = tested on: M. tuberculosis H37Rv; test: MIC for M. tuberculosis H37Rv (resazurin/alamarBlue); assay type: cell-based, Mycobacterium tuberculosis; conditions: for MIC: Mycobacterium tuberculosis, H37RV, read-out: MIC M.tb H37Rv; for improvement of MIC values over compound 1: M. tuberculosis H37Rv
[3] = tested on: Vero cells; test: In vitro cytotoxicity assay (MTT); assay type: cell-based, African green monkey; conditions: Chlorocebus sabaeus, 72 h
Description: Vero epithelial cells (from African green monkey; ATCC CCL-81) were cultured in Dulbecco's modified Eagle's medium (DMEM) supplemented with 10% fetal bovine serum (FBS) and maintained in a humidified incubator (37°C in 5% CO2). Cells were dislodged with a cell scraper, collected by centrifugation, resuspended in fresh medium at ∼10^6 cells/ml, dispensed into 96-well microtiter plates ([…]), and incubated for 18 h at 37°C. Twofold serial dilutions of test compounds in DMEM with FBS were subsequently added, and cells were incubated for another 72 h. In triplicate studies, the cytopathic effects of compounds were evaluated colorimetrically by using the 3-(4,5-dimethyl-2-thiazolyl)-2,5-diphenyl-2H-tetrazolium bromide (MTT) cell proliferation assay (ATCC). IC50 data were obtained from dose-response curves plotted by using GraphPad Prism 5.

[4] = in vitro; assay type: in vitro ADME; conditions: mouse plasma, 1 and 10 µg/ml, ultrafiltration; read-out: Mouse PPB (converted)
Description: Compounds were added to 1.5-ml aliquots of mouse plasma at concentrations of 1 and 10 µg/ml and then incubated in a shaking water bath at 37°C for 15 min. Both samples were treated similarly, and a 0.5-ml aliquot was removed from each tube and added to the filter reservoir of Microcon centrifugal filter devices (Ultracel YM-30 with a molecular mass cutoff of 30 kDa). The devices were centrifuged at 1,000 × g for 10 min, and 100 μl of the filtrate was transferred to a 96-well plate and diluted 5-fold. Ten-microliter volumes of the samples were injected and analyzed with the LC-MS/MS system. All samples were analyzed in duplicate. Quantitation was based on the peak area ratio of the analyte over the internal standard, and all integrations were performed with peak areas by using Analyst version 1.4.1 (Applied Biosystems, Foster City, CA, USA). Plasma protein binding was calculated based on the following equation: Plasma Protein Binding (%)=(PeakAreaPlasma UltrafilrateSpiked−PeakAreaPlasmaFiltrate)/PeakAreaPlasma UltrafiltrateSpiked×100

[5] = in vivo; conditions: for AUC(0-inf) / Cmax / MRT / Vd / clearance / half-life / AUC(0-t) / Tmax / bioavailability: in vivo; for α-t1/2 % AUC / β-t1/2 % AUC: i.v.
Description: Mouse pharmacokinetic studies were conducted by using female CD-1 mice for compounds 1, 11, and 12, while BALB/c mice were used for compound 13. Mouse body weights were 19 to 28 g, and on the morning of dosing, mice were split randomly into 3 dosing groups to receive the test article by either intravenous (i.v.) tail vein injection or oral (p.o.) gavage. After dosing, blood samples were collected via cardiac puncture at specific time points (n = 3 mice/time point) through 24 h (K2EDTA as an anticoagulant) and processed for plasma. Antibiotic concentrations in the plasma samples were analyzed by liquid chromatography-tandem mass spectrometry (LC-MS/MS). The LC-MS/MS analysis was conducted by using analyte/internal standard peak area methods. The internal standard was AN3365 ([21]), and the instrument used was an API4000 QTRAP instrument (AB Sciex). The limit of quantitation (LOQ) was 1 or 2 ng/ml. Pharmacokinetic analyses of the mean plasma concentration-time profiles were performed by using WinNonlin Pro version 5.2. A compartmental model was used for the data for i.v. dosing, and a noncompartmental model was used for the data for p.o. dosing. […] Compounds 1 and 13 were formulated in saline (0.9% [wt/vol] NaCl) at 7.5 mg/ml, and the pH was adjusted to >5 by the addition of NaOH. Compound 11 was formulated to 6.5 mg/ml in water-dimethylacetamide-ethanol (EtOH) (76:19:5), and the pH was adjusted to >5 by the addition of NaOH. Compound 12 was formulated to 7.5 mg/ml in PEG 300-propylene glycol (PG)-water (55:25:20), and the pH was adjusted to >5 by the addition of NaOH.

[6] = biological target: M. tuberculosis LeuRS editing domain (Mycobacterium tuberculosis, UniProt P9WFV1); test: biochemical; assay type: binding
[7] = tested on: SDHA in HepG2 cells; test: Mitochondrial protein synthesis assay, SDHA level; assay type: cell-based; conditions: Homo sapiens, 168 h; HepG2, 7 days; read-out: Mean EC50 ± SD SDHA
Description: (§1) The human liver carcinoma-derived HepG2 cell line was obtained from the ATCC (ATCC HB-8065). HepG2 cells were grown in Dulbecco's modified Eagle's medium containing 10% fetal calf serum, 1 mM sodium pyruvate, 0.1 mM essential amino acids, and 50 U/ml penicillin-streptomycin at 37°C with 5% CO2. HepG2 cells were seeded into 96-well plates at 3,000 cells/200 μl/well in cell culture medium. Cells were then grown in the presence of the compounds at 37°C in 10% CO2 for 7 days in at least duplicate concentrations, with the medium and compounds being replaced on the fourth day. After 7 days, the levels of SDHA (subunit A of the succinate dehydrogenase complex) and COX1 (cytochrome c oxidase) were determined by using the MitoSciences In-Cell enzyme-linked immunosorbent assay (ELISA) kit. Janus green staining was used to determined cell viability after 7 days (In-Cell ELISA kit, catalog number MS643).

[8] = tested on: COX1 in HepG2 cells; test: Mitochondrial protein synthesis assay, COX1 level; assay type: cell-based; conditions: Homo sapiens, 168 h; HepG2, 7 days; read-out: Mean EC50 ± SD COX1
Description: as §1

[9] = tested on: HepG2 cells; test: HepG2 cell viability (Janus green staining); assay type: cell-based; conditions: Homo sapiens, 168 h, HepG2, 7 days, read-out: Mean EC50 ± SD Cell viability
Description: as §1

[10] = female, CD-1, mouse, iv, 15 mg/kg
[11] = mouse, po, 30 mg/kg, Terminal t1/2, mouse

Chain of M. tuberculosis LeuRS (P9WFV1 whole entry): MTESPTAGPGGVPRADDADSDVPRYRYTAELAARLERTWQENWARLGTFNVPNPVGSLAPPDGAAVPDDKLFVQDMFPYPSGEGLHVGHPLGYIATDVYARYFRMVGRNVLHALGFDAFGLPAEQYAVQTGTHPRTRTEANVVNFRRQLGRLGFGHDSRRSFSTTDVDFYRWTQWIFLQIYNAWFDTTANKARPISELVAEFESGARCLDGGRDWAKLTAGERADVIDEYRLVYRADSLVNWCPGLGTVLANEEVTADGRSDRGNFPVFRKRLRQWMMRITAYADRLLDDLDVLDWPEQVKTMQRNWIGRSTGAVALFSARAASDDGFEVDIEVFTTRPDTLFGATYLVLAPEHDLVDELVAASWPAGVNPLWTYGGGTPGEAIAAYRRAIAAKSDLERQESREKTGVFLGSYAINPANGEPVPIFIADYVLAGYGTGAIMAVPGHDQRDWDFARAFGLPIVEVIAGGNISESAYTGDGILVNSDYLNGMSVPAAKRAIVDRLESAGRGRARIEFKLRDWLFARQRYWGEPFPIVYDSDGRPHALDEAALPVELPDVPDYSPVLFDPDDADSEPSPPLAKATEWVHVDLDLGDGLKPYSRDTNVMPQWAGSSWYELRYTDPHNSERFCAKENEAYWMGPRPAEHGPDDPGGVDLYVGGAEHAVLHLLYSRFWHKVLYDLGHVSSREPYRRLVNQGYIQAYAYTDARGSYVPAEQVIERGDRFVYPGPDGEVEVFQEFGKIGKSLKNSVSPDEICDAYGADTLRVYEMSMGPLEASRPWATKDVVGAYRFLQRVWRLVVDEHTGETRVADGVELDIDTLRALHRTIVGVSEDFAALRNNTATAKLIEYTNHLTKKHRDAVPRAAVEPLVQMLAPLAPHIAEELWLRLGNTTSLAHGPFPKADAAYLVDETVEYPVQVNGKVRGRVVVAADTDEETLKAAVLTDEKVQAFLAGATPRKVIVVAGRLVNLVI
Chain of M. tuberculosis LeuRS editing domain (P9WFV1 309-513): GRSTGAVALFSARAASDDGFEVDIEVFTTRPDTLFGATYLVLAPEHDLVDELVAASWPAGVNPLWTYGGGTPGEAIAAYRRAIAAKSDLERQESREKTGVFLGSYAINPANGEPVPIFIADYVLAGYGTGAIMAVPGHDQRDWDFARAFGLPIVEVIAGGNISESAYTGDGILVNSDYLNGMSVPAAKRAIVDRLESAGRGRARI

## OCCCOc1cccc2c1B(O)OC2 [AN3016]
[1]; read-out: IC50 M.tb LeuRS
  IC50: 3.5 µM
[2]
  MIC M.tb H37Rv: 1.0 µg/mL (≈ 4.81 µM)
  MIC: 1 µg/mL (≈ 4.81 µM)

## CCOc1ccc(Cl)c2c1B(O)OC2CN (centres unmarked) [Compound 4]
[3]
  EC50: > 50 µM
[1]
  IC50: 0.09 µM
[2]
  improvement of MIC values over compound 1: more than 5 fold
  MIC: 0.04 µg/mL (≈ 0.166 µM)

## CCOc1ccc(Br)c2c1B(O)OC2CN (centres unmarked) [Compound 11]
[4]
  fraction unbound: 0.5
[5]; [10]
  AUC(0-inf): 45800 ng·h/mL
  Cmax: 18000 ng/mL
  MRT: 3 h
  Vd: 0.968 L/kg
  clearance: 5.47 mL/min/kg
[5]; female, CD-1, mouse, iv, 15 mg/kg, α-t1/2, mouse
  half-life: 0.09 h
[5]; female, CD-1, mouse, iv, 15 mg/kg, β-t1/2, mouse
  half-life: 2.08 h
[5]; mouse, 15 mg/kg
  α-t1/2 % AUC: 2 % AUC
  β-t1/2 % AUC: 98 % AUC
[5]; mouse, po, 30 mg/kg
  AUC(0-t): 35900 ng·h/mL
  Cmax: 7200 ng/mL
  Tmax: 1 h
  bioavailability: 39%
[5]; [11]
  half-life: 2.7 h
[3]
  EC50: > 50 µM
[6]
  Kd: 0.04 µM
  No. of sites: 1.02
  ΔGap: -10.0 kcal/mol
  ΔHap: -5.5 kcal/mol
  −TΔSap: -4.6 kcal/mol
[1]
  IC50: 0.11 µM
[2]
  improvement of MIC values over compound 1: more than 5 fold
  MIC: 0.05 µg/mL (≈ 0.175 µM)

## O=C(N[C@H](CO)[C@H](O)c1ccc([N+](=O)[O-])cc1)C(Cl)Cl [Chloramphenicol, chloramphenicol]
[7]
  EC50: > 150 µM
[8]
  EC50: 31.4 ± 23.2 µM
[9]
  EC50: 110 ± 14.1 µM

## CCOc1ccc(C)c2c1B(O)OC2CN (centres unmarked) [Compound 8]
[3]
  EC50: > 50 µM
[1]; read-out: IC50 M.tb LeuRS
  IC50: 0.2 µM
[2]
  MIC: 0.04 µg/mL (≈ 0.181 µM)

## CCOc1c(F)ccc2c1B(O)OC2CN (centres unmarked) [Compound 7]
[3]
  EC50: > 50 µM
[1]; read-out: IC50 M.tb LeuRS
  IC50: 0.56 µM
[2]
  MIC M.tb H37Rv: ≥ 1.1 µg/mL
  MIC: > 1.1 µg/mL

## CCOc1cccc2c1B(O)O[C@@H]2CN [Compound 2]
[4]
  fraction unbound: 0.94
[5]; mouse, 30 mg/kg
  α-t1/2 % AUC: 5 % AUC
  β-t1/2 % AUC: 95 % AUC
[5]; mouse, iv, 30 mg/kg
  AUC(0-inf): 13800 ng·h/mL
  Cmax: 8900 ng/mL
  MRT: 2.1 h
  Vd: 2.12 L/kg
  clearance: 36.3 mL/min/kg
[5]; mouse, iv, 30 mg/kg, α-t1/2, mouse
  half-life: 0.06 h
[5]; mouse, iv, 30 mg/kg, β-t1/2, mouse
  half-life: 1.5 h
[5]; mouse, po, 30 mg/kg
  AUC(0-t): 13200 ng·h/mL
  Cmax: 3400 ng/mL
  Tmax: 0.5 h
  bioavailability: 96%
[5]; [11]
  half-life: 1.8 h
[3]
  EC50: > 50 µM
[6]; ITC, 25°C, with AMP
  No. of sites: 1.05
  ΔGap: -7.4 kcal/mol
  ΔHap: -1.1 kcal/mol
  −TΔSap: -6.3 kcal/mol
[6]; ITC, 25°C, with AMP, read-out: Kd
  Kd: 3.7 µM
[1]; read-out: IC50 M.tb LeuRS
  IC50: 0.13 µM
[2]
  MIC: 0.13 µg/mL (≈ 0.628 µM)

## CCOc1ccc(F)c2c1B(O)OC2CN (centres unmarked) [Compound 6]
[3]
  EC50: > 50 µM
[1]; read-out: IC50 M.tb LeuRS
  IC50: 0.11 µM
[2]
  improvement of MIC values over compound 1: more than 5 fold
  MIC: 0.05 µg/mL (≈ 0.222 µM)

## CC[C@H]1OC(=O)[C@H](C)[C@@H](O[C@H]2C[C@@](C)(OC)[C@@H](O)[C@H](C)O2)[C@H](C)[C@@H](O[C@@H]2O[C@H](C)C[C@H](N(C)C)[C@H]2O)[C@](C)(O)C[C@@H](C)C(=O)[C@H](C)[C@@H](O)[C@]1(C)O [Erythromycin, erythromycin]
[7]
  EC50: > 150 µM
[8]
  EC50: > 150 µM
[9]
  EC50: > 150 µM

## CCOc1ccc(-c2ccccc2)c2c1B(O)OC2CN.Cl (centres unmarked) [Compound 10, 3-(Aminomethyl)-7-ethoxy-4-phenylbenzo[c][1,2]oxaborol-1(3H)-ol hydrochloride]
[3]
  EC50: > 50 µM
[1]; read-out: IC50 M.tb LeuRS
  IC50: 28 µM
[2]
  MIC: 17 µg/mL
